Data on 21 compounds can be found in PubChem BioAssay (NCI).

Test in all cases: growth of human tumour cells (NCI), 48 h
In test [1] the test system is BT-549 breast.
For test [2], the system named is HCT-116 colon.
The subject of test [3] is HOP-62 NSCLC.
The subject of test [4] is HS 578T breast.
The subject of test [5] is MDA-MB-231 breast.
Test [6] has as its system NCI-H23 lung.
Test [7] concerns NCI-H460 lung.
Test [8] relates to SNB-75 CNS.
The test system of test [9] is SF-539 CNS.
The test system of test [10] is SK-OV-3 ovarian.

Structures are written as SMILES.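 A five-concentration, 48-hour dose response in 96-well plates underlies each endpoint, interpolated linearly between surrounding concentrations. GI50 = concentration required for 50% inhibition of growth. The concentration for full growth arrest is given as TGI.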 Where a SMILES comes first, the peptide text is derived from it. The star is where a group is joined. Boc = CC(C)(C)OC(=O)*

In the case of `Cc1ccc2c(c1)-c1nc(N)c(C#N)c(-c3ccccc3)c1CCS2(=O)=O`, the TGI is over 100 µM in test [1]; over 100 µM in test [2]; over 100 µM in test [3]; 68.1 µM in test [4]; over 100 µM in test [5]; over 100 µM in test [6]. Moreover, the figures for the TGI in test [7] and in test [8] were over 100 µM and 81.8 µM, respectively.

Take `CC(C)(C)OC(=O)N1C(c2cccnc2)=CC[C@H]2C3CC=C(c4cccnc4)[C@@]3(C)CC[C@@H]21` (stereo partly drawn): the TGI was 16.3 µM in test [1]; 17.5 µM in test [2]; 16.3 µM in test [3]; 24.7 µM in test [4]; 12.8 µM in [6]; 14.1 µM in [7]. Besides, the TGI in [9] turned out to be 14.8 µM; in test [10], 15 µM; in test [8] it was 19.7 µM.

As for `COC(=O)C(Cc1c[nH]c2ccccc12)NC(=O)C(Cc1c[nH]c2ccccc12)NC(=O)C(Cc1c[nH]c2ccccc12)NC(=O)C(Cc1c[nH]c2ccccc12)NC(=O)C(Cc1c[nH]c2ccccc12)NC(=O)C(Cc1c[nH]c2ccccc12)NC(=O)C(Cc1c[nH]c2ccccc12)NC(=O)C(Cc1c[nH]c2ccccc12)NC(=O)OC(C)(C)C` (stereo not drawn) (Boc-WWWWWWWW-OMe; configuration not given here), the TGI in [1], in test [2], in test [3], in test [5], in test [6] and in test [7] was over 100 µM throughout. The compound also returned a TGI in test [8] of over 100 µM.

For the compound `Cc1cc(S(=O)(=O)Nc2nc3ccccc3c(=O)n2N)c(S)cc1Cl`, the TGI in [1] was over 100 µM; in [2], over 100 µM; in test [3] it was 79.7 µM; in test [5], over 100 µM; in test [6], over 100 µM; in [7], over 100 µM. Also, the TGI is over 100 µM in test [9], over 100 µM in test [10] and 92.7 µM in test [8]. For the same compound, in test [8], the GI50 is 13.3 µM.

As to `Cc1cn(CC2=NCC(C)N2)c(=O)[nH]c1=O` (stereo not drawn), the TGI in test [1], in [2], in [3], in [4], in [5] and in [6] was over 100 µM in each case. In addition, the TGI in test [7], in test [10] and in test [8] was over 100 µM throughout.

With `C(=C\c1ccco1)/c1cccc(/C=C/c2ccco2)n1`, the TGI in [1], in test [2], in test [3], in test [4], in [6] and in [7] was over 50 µM in each case. In addition, the TGI in test [9] is over 50 µM; in [10] it was over 50 µM; in test [8], 33.1 µM.

In the case of `C=C1CCC([N+](=O)[O-])[C@](C)(N=O)CC[C@@H]2C1CC2(C)C` (stereo partly drawn), the TGI was 37.1 µM in test [1]; 32.1 µM in [2]; over 100 µM in test [3]; 39 µM in test [4]; 33.3 µM in test [6]; 39.6 µM in test [7]. In addition, the figures for the TGI in test [10] and in test [8] were over 100 µM and 45.3 µM, respectively.

Turning to `NC(=S)N/N=C\c1nccc2ccccc12`, the TGI in test [1] is 13.9 µM; in test [2], over 59.4 µM; in test [4] it was over 100 µM; in test [5], 35.7 µM; in test [6] it was over 100 µM; in test [7], 25.5 µM. Besides, the TGI in test [9] stood at 0.455 µM; in test [10], 0.681 µM.

Consider `O=C(NNC(=S)NC1CCCCC1)c1csc(NC(=S)NC2CCCCC2)n1`, for which the TGI is 21.1 µM in test [1]; 16.5 µM in [2]; 35.2 µM in test [3]; 45.1 µM in test [5]; 45.2 µM in [6]; 15.6 µM in test [9]. The TGI in [10] was found to be 28.6 µM.

As for `NC(N)=Nc1ccc(CC(N)C(=O)O)cc1` (stereo not drawn), the TGI in [1], in test [2], in test [3], in test [4], in test [5] and in test [6] was over 12.5 µM throughout. In addition, the TGI in test [10] and in [8] was over 12.5 µM in each case.

As to `COc1ccc2nc(-c3ccc(O)cc3)sc2c1`, the TGI in [1] was 36.3 µM; in [2], 32.7 µM; in [5] it was 46.9 µM; in [6], 43.6 µM; in test [7] it was over 100 µM; in [9], 37.1 µM. Moreover, the TGI in [10] stood at 91.2 µM.

`CC(=O)O[C@H]1[C@H](OC(=O)CC(C)(O)CC(=O)O)C[C@]2(C)C3=C(CCC2C1(C)C)[C@]1(C)CC[C@H]([C@H]2CC[C@H](C(C)(C)O)OC2O)[C@@]1(C)[C@@H](O)C3` (stereo partly drawn): the TGI stood at 29 µM in test [1]; 44.7 µM in test [2]; 32.7 µM in [3]; 41.9 µM in [4]; 32.4 µM in test [5]; 32.2 µM in test [6]. Further, the TGI in test [7] worked out at 28.6 µM; in test [10], 30.6 µM.

In the case of `Oc1ccc(-c2nc3ccc(Cl)cc3s2)cc1`, the TGI was determined as 33.3 µM in test [1]; 29.5 µM in test [2]; 45.5 µM in test [5]; 36.5 µM in [6]; 36.1 µM in [7]; 34.7 µM in [9]. The compound further showed a TGI in test [10] of 36.4 µM.

Turning to `CO/N=C(\C)c1cccc(Nc2c3ccccc3nc3occc23)c1`, the TGI turned out to be 48.8 µM in test [1]; 21.2 µM in test [2]; 20.2 µM in [3]; 41 µM in test [4]; 26.1 µM in [5]; 20.9 µM in test [6]. The results for the TGI in [7], in test [9] and in test [10] were 23.7 µM, 21.5 µM and 36.4 µM, respectively.

`O=C1CSC(c2cccc([N+](=O)[O-])c2)N1c1ccc(-n2c(-c3ccccc3)nc3ccccc3c2=O)cc1` (stereo not drawn): the TGI in [1], in test [2], in test [3], in [4], in test [5] and in [6] was over 100 µM in each case. Besides, the TGI in test [7], in test [9] and in test [10] was over 100 µM each time.

`CCOC(=O)c1ccc(NCC#CCN2CCCCC2)cc1`: the TGI in test [1], in [2], in test [3], in test [4], in test [5] and in test [6] was over 100 µM each time. In addition, the TGI in test [9] and in [10] was over 100 µM each time.

As for `C=C1C2C[C@@H]3O[C@H]4C[C@H]5O[C@@]6(C[C@@H]7O[C@]8(C[C@H](C)[C@@H]9O[C@@H]%10CC(CO)O[C@@H]%10C[C@@H]9O8)C[C@H](C)[C@@H]7O6)C[C@H]5O[C@H]4[C@H](C)[C@H]3OC(=O)C[C@H]3CC[C@@H]4OC5[C@H]6O[C@]7(CC[C@H]8CC(=C)[C@H](CC[C@@H](C[C@H]1C)O2)O8)CC6O[C@@H]5[C@@H](O7)[C@H]4O3` (stereo partly drawn), the TGI in test [1] was under 0.0001 µM; in test [3] it was over 1 µM; in [4], under 0.0001 µM; in test [5], over 1 µM; in test [6], 0.00124 µM; in test [10] it was over 1 µM. For the same compound, the TGI in [8] is over 1 µM.

As to `N#Cc1c(N)nc(Sc2ccccc2N)c(C#N)c1-c1ccc(Cl)cc1`, the TGI was 33.2 µM in test [1]; over 72.6 µM in [2]; 17.2 µM in test [3]; 32 µM in test [4]; 35.7 µM in [5]; over 63 µM in test [6]. Further, the TGI in test [7] was 58.6 µM; in test [9], 26.7 µM; in test [10], 40.6 µM.

Regarding `CCC(=O)Nc1ccc(N2C(=O)C(Cl)C2c2ccc(SC)cc2)cc1` (stereo not drawn), the TGI in test [1], in test [2], in test [3], in test [4], in test [6] and in test [7] was over 100 µM in each case. The TGI in test [9], in [10] and in test [8] was over 100 µM throughout.

In the case of `CC1(C)OCC=CCO1`, the TGI in test [1], in [2], in test [3], in test [4], in [6] and in test [7] was over 100 µM each time. Moreover, the TGI in test [9], in test [10] and in [8] was over 100 µM each time.

As to `CCC(C#N)NCc1cccc(CNC(C#N)CC)c1` (stereo not drawn), the TGI in [1], in test [2], in test [4], in [5], in [6] and in [7] was over 100 µM each time. The TGI in [9] was over 100 µM; in test [10], 32.3 µM.
